Laboratory results reported in patent US11352374B2 (University of Alaska Anchorage, priority 2015, dated 2022).
“And” between values parts separate entries of the source, which are not always exact repeats. Identical values can stand only once.

Tests used:
[1] = tested on: fibroblast tumor cells (Hs 895.T) and normal fibroblast cells (Hs 895.Sk)
Procedure: (§4) Cells were seeded at the density of 3×10^3 cells per well in 96-well plate with different concentrations of CORCBs in DMEM media without FBS, and incubated at 37° C. with 5% CO2 for 2 days.

physchem = conditions: for auto-decomposition of salts (in words): salts in D2O
Procedure: The kinetics of compound decomposition was followed by observing the ratio of the amount of free amine group to the original compound using ^1H NMR. For instance, Hexamethylenetetramine carboxyborane (CORCB-1) in D2O at the concentration of 12 mg/mL was incubated at 37° C. in the standard NMR tube. ^1H NMR spectra were obtained at different time points to study the kinetics of product formation. […] The ratio of integrated peaks were used for determining the percent of each species present and plotted as a function of time to show the kinetics of auto-decomposition.
^1H, ^11B, and ^13C NMR spectra were recorded at different time points to study the kinetics as well as to observe transformation of CORCB-1 into the products.
In order to determine whether CO is produced in physiological condition, CORCB acid forms were dissolved in aqueous solution at neutral pH. The solution was then subjected to incubation at 37° C. for extended period of time. For studies using NMR, CORCBs were dissolved in D2O. The kinetics of CORCB molecules breaking down to produce CO is determined by taking ^1H NMR spectra at various time points (FIG. 3).
CORCB sodium and ammonium salts were also tested for decomposition by using ^1H NMR spectroscopy. Samples were set up as in Example 1 and rate of decomposition measured (FIG. 4).

[2] = CO released on auto-decomposition in water at 37° C., head space measured with CO meter; type: physicochemical
Procedure: (§1) A test to confirm that CO is one of the decomposition products from CORCBs is done by utilizing commercially available CO meter. Four mole of the compounds at the concentrations of 6-12 mg/mL in aqueous solution was incubated at 37° C. in a sealed vessel with 50 mL gas space. CO meter was used to read the concentration of liberated CO gas from the solution. Measurement by CO meter in ppm, after converting to the micromole amount, was used for calculating the percent CO released based on the original amount of compound.
CO liberated from the molecules and coming out to the head space are detected and quantified by using CO meter.

horse Mb = assay: Myoglobin (Mb) assay: deoxy-Mb to carboxy-Mb; type: biochemical; conditions: in one hour; 69 μM deoxy-Mb, 50× excess compound, 37° C.; compound per FIG. 2 legend
Procedure: Since there was no literature that reported the use of CO meter with CO releasing molecules, to further confirm that CORCBs release CO, Mb assay was performed using the standard procedure used with other CO releasing compounds. In brief, 1 mM horse Mb in 50 mM sodium phosphate buffer (pH 7.4) was deoxygenated using 3 equivalents of sodium dithionite. Excess dithionite was removed by desalting column. Deoxy-Mb at the concentration of 69 μM was mixed with CORM (50× excess) and incubated in 37° C. Visible spectra in the range of 550-600 nm were recorded at every 10 minutes. Overlaid spectra of these samples show a gradual transformation of deoxy-Mb to carboxy-Mb (FIG. 2). The percent CO released calculated was approximately 1% in one hour.

[3] = Decomposition (amine release) in the presence of H2O2 monitored by 1H NMR; type: physicochemical; conditions: for % decomposition / free amine released by 1H NMR with H2O2: 1.5 equivalents H2O2, 24 hours; for Decomposition rate at 24 hours, 1H NMR, With 1.5x H2O2: 1.5 equivalents H2O2, 37° C.
Procedure: (§2) The two tested are the common ROS formed naturally in the cells—a non-radical hydrogen peroxide (H2O2) and Fenton reagent which is a more reactive hydroxyl radical (.OH) formed from Fe^2+ and H2O2. Four mole of CORCB compounds were mixed in an aqueous solution with ROS and incubated in a sealed vessel. At respective times, the head space air was injected into the meter to read the amount of CO produced. For analysis by NMR spectroscopy, the reaction mixture was prepared in NMR tube in D2O solvent and incubated for the amount of time indicated.
The reaction with H2O2 is slow-acting, therefore, NMR spectroscopy can be used for monitoring the rate.

[4] = CO released in the presence of H2O2, CO meter; type: physicochemical; conditions: for % CO produced by CO meter with H2O2: 1.5 equivalents H2O2, 24 hours; for CO release rate at 24 hours, CO meter, With 1.5x H2O2: 1.5 equivalents H2O2, 37° C.
Procedure: as §1, §2

[5] = CO released in the presence of Fenton reagent (hydroxyl radical), CO meter; type: physicochemical; conditions: per 5 minutes
Procedure: as §1
as §2, with “All amine carboxyboranes express a faster CO release rate when incubated with the reactive oxygen species. The” for “The”, “indicated. While some CORCBs have increased amount of CO produced when treated with 3 times equivalents of H2O2, CORCB-1 produces similar or less amount of CO. In every sample, either acid or salt form, the hydroxyl radical extracts the amount of CO to a much higher magnitude within a very short amount of time.” for “indicated.”

[6] = CO generated at different pHs, CO meter; type: physicochemical; conditions: compound per FIG. 10 legend
Procedure: FIG. 10 graphically depicts the percent CO generated by CORCB-1 in different pHs monitored by the CO meter. CORCB was dissolved in water with adjusted pH before incubation in 37° C. After 12 hours, CO gas in the head space was analyzed using a CO meter.
CO releasing property of CORCBs is not limited only to the neutral environment. It works in any pH ranging from 2 to 12 as evident in FIG. 10. […] CO is released at the highest amount in the acidic condition of pH 2 with more than 25% in 12 hours.

[7] = tested on: LPS-induced TNF-α production in mouse macrophage cells (RAW264.7); assay: Inhibition of LPS-induced TNF-α production (ELISA); type: cell-based
Procedure: To test the anti-inflammatory effect of CORCBs, mouse macrophage cells (RAW264.7) were used. 2×10^4 cells per well was seeded in 96-well plate with different concentrations of CORCBs. Cells were incubated in DMEM with 10% FBS at 37° C. and 5% CO2 for 24 hours. LPS (100 ng/mL) was then added and incubated for 4 additional hours. The media containing secreted inflammatory cytokines were collected and these cells were subjected to cell viability test to check their viability. TNF-α concentration in each sample was measured by ELISA assay.

[8] = tested on: LPS-induced TNF-α production in RAW264.7 cells; assay: LPS-induced TNF-α production with CORCB plus H2O2; type: cell-based, mouse
Procedure: RAW264.7 cells at the density of 2×10^4 cells per well in 96-well plate were treated with varying concentrations of CORCB plus different concentrations of H2O2.

[9] = Anti-tumor effect of CORCB-1 in the presence of ROS, normal cells; type: cell-based, human; conditions: human, Hs 895.Sk normal fibroblast cells; 1 mM CORCB-1 + 0.2 mM H2O2, 2 days; read-out: % viable normal cells at 2 days
Procedure: (§3) To further test the anti-tumor effect of CORCBs in the presence of ROS, fibroblast tumor cells (Hs 895.T) and normal fibroblast cells (Hs 895.Sk) were incubated with 1 mM of CORCB-1 and 0.2 mM of H2O2 mixed in the DMEM media without FBS. Media was exchanged every 2 days for longer incubation periods such as 4 and 6 days. […] Both tumor and normal cells are close to 100% viable at 2 days, but for longer treatment periods, tumor cells growth rate declines and normal cell growth remains steady. […] Normal cells are preserved under stressed condition while tumor cells are destroyed.

[10] = tested on: normal fibroblast cells (Hs 895.Sk); assay: as above; type: cell-based, human; conditions: 1 mM CORCB-1 + 0.2 mM H2O2, 6 days
Procedure: as §3

[11] = tested on: normal human skin fibroblast cells (Hs 895.Sk)
Procedure: This was tested by using a chemotherapy drug, imatinib, in normal human skin fibroblast cells (Hs 895.Sk). The cultures were treated with 20 μM and 40 μM concentration of imatinib as controls to see their toxicity. Samples with mixtures of CORCB-1 and imatinib were also incubated and cell viability was determined on 2, 4, and 6 days. Media was exchanged every 2 days with fresh reagents.

[12] = Solubility in water / D2O; conditions: water or D2O
[13] = tested on: normal fibroblast cells (Hs 895.Sk); assay: Cell viability in DMEM without FBS, Cell Titer Blue, normal cells; conditions: 2 mM, 48 hours
Procedure: as §4

NC12CC3CC(CC(C3)C1)C2 [Amantadine, reference compound]
cells left (viability) ([1]; human, 48 h, 1 mM): about 20%

O=C(O)B[N+]12CN3CN(CN(C3)C1)C2 [CORCB-1, Hexamethylenetetramine carboxyborane]
half-life at 12 mg/mL (physchem): 84 h | Decomposition rate at 24 hours, 1H NMR, Autodecomposition (physchem; 37° C.): 19% | rate of auto-decomposition (physchem; as stated in Example 10): around 20 % per day | rate of decomposition (physchem; in the beginning, acid form, D2O, 37° C.): 0.85 % per hour | CO release rate ([2]; 37° C.): approximately 1 % per hour | % CO liberated at 24 hours by CO meter ([2]; 24 hours, 37° C.): 23% | CO release rate at 24 hours, CO meter, Autodecomposition ([2]; 24 hours, 37° C.): 24% | Rate of % CO released by CORCBs, Autodecomposition ([2]; per 24 hour): 23.47 ± 0.38% | percent CO released (Mb assay) (horse Mb): approximately 1% | % decomposition / free amine released by 1H NMR with H2O2 [3]: 51% | Decomposition rate at 24 hours, 1H NMR, With 1.5x H2O2 [3]: 50.90% | % CO produced by CO meter with H2O2 [4]: 12% | CO release rate at 24 hours, CO meter, With 1.5x H2O2 [4]: 12.10% | Rate of % CO released by CORCBs, With H2O2 ([4]; per 24 hour, H2O2 equivalents not given): 20.86 ± 0.82% | Rate of % CO released by CORCBs, With Fenton Reagent [5]: 60.90 ± 0.52% | CO released at pH 2 ([6]; pH 2, 12 hours, 37° C.): more than 25% | CO release rate as a function of pH (in words) ([6]; pH 2 to 12, 12 hours): the lowest in pH 7 | amount of TNF-α secreted, compound alone ([7]; 1 mM, LPS only = 100%): about 80% | effect on LPS-induced TNF-α production (in words) ([7]; 24 hours compound, then LPS 100 ng/mL 4 hours): inhibits the production of TNF-α | amount of TNF-α secreted, together with H2O2 [8]: about 25% | viability at 2 days, 1 mM [9]: ~100% | normal cell growth, 6th day [10]: 89% | cell viability after the TNF-α assay (in words) (RAW264.7 cells): all cells were still healthy | selectivity of growth stimulation (in words) ([1]; Hs 895.Sk versus Hs 895.T, 48 hours): more selective towards the normal fibroblast cells | viable cells compared with untreated cells ([1]; human, 48 h): ~180% | survival rate, mixture of imatinib and CORCB-1 ([11]; CORCB-1 (3 mM) + imatinib 20 or 40 μM, day 4 and 6): around 70%

C[C@]12CC3CC([NH2+][BH2-]C(=O)O)(C1)C[C@@](C)(C3)C2 [CORCB-4, memantine carboxyborane]
Decomposition rate at 24 hours, 1H NMR, Autodecomposition (physchem; 37° C.): not soluble | CO release rate at 24 hours, CO meter, Autodecomposition ([2]; 24 hours, 37° C.): not soluble | solubility in water [12]: low solubility in water

CC12CC3CC(C)(C1)CC([NH2+][BH2-]C(=O)O)(C3)C2.N [NH4-CORCB-4]
Decomposition rate at 24 hours, 1H NMR, Autodecomposition (physchem; 37° C.): 12.80% | decomposition in 12 days (physchem; ammonium salt, 12 days, 37° C.): about 13% | CO release rate at 24 hours, CO meter, Autodecomposition ([2]; 24 hours, 37° C.): not soluble | solubility in water [12]: soluble in water

CC12CC3CC(C)(C1)CC([NH2+][BH2-]C(=O)[O-])(C3)C2.[Na+] [Na-CORCB-4, Memantinecarboxyborane sodium salt]
Decomposition rate at 24 hours, 1H NMR, Autodecomposition (physchem; 37° C.): not measurable | auto-decomposition of salts (in words) (physchem; 37° C., listed as Sodium salt of CORCB-4, sodium salt): insignificant amounts of decomposition | auto-decomposition of salts (in words) (physchem; 37° C., listed as sodium salt of CORCB-4, sodium salt): does not decompose in measurable amount | CO release rate at 24 hours, CO meter, Autodecomposition ([2]; 24 hours, 37° C.): 0.06% | % decomposition / free amine released by 1H NMR with H2O2 ([3]; sodium salt): 96.4% and ~100% | Decomposition rate at 24 hours, 1H NMR, With 1.5x H2O2 [3]: 96.40% | % CO produced by CO meter with H2O2 [4]: 1.6% | CO release rate at 24 hours, CO meter, With 1.5x H2O2 [4]: 1.60% | solubility in water [12]: soluble in water

O=C([O-])[BH2-][NH2+]C12CC3CC(CC(C3)C1)C2.[Na+] [Na-CORCB-6, Amantadine carboxyborane sodium salt]
Decomposition rate at 24 hours, 1H NMR, Autodecomposition (physchem; 37° C.): not measurable | CO release rate at 24 hours, CO meter, Autodecomposition ([2]; 24 hours, 37° C.): 0.16% | Decomposition rate at 24 hours, 1H NMR, With 1.5x H2O2 [3]: 36.90% | CO release rate at 24 hours, CO meter, With 1.5x H2O2 [4]: 0.80% | viability of normal fibroblast cells (in words) [13]: increasing the percent viability of normal fibroblast cells

Cc1ccc(NC(=O)c2ccc(CN3CCN(C)CC3)cc2)cc1Nc1nccc(-c2cccnc2)n1 [imatinib]
cell viability with 20 μM imatinib (in words) ([11]; 20 μM, by 6 days): killed | cell viability with 40 μM imatinib (in words) ([11]; 40 μM, at 4 days): lose their viability
